Activity calls are given as the source filed them.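 The calls were made as follows: active = half-maximal concentration for the rise in caspase light signal at or below ten times the top tested dose; inconclusive = flat fit between 30% and 70% activity, or unreliable curve fit; inactive = the rest.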
System: MEF A1-2A-BIM cells, caspase 3/7 luminescence, 3 h
Experiment: caspase activation in A1-2A-BIM MEF cells, dose response, A1 inhibitor project, cell-based, luminescence, retest (AID 2765)

| SMILES | EC50 |
| --- | --- |
| C[C@H](CO)N1C[C@H](C)[C@H](CN(C)Cc2ccc(-c3ccccc3)cc2)Oc2ccc(NS(=O)(=O)c3ccccc3)cc2CC1=O | > 35 µM (inactive) |
| CC(C)Oc1ccc(C(=O)OCC(=O)NC2CCCCCC2)cc1 | > 35 µM (inactive) |
| CC(C)C(=O)Nc1cc(S(=O)(=O)N2CCOCC2)ccc1N1CCCCC1 | > 35 µM (inactive) |
| CCn1c(SCC(=O)Nc2ccc(C(C)=O)cc2)nc2c([nH]c3ccccc32)c1=O | 13 µM |
| CCCn1c(=N)n(CCOc2ccc(OC)cc2)c2ccccc21 | > 35 µM (inactive) |
| CCOc1cc(C(=O)CSc2nnc(CNc3ccc(Cl)cc3)o2)ccc1NC(=O)CC | 16 µM |
| CC(C)(C)c1ccc2c(c1)OC(C(=O)N/N=C\c1ccc[nH]1)CO2 (centres undefined) | > 35 µM (inactive) |
| CC(C)[C@H](NC(=O)[C@@H]1Cc2ccccc2CN1C(=O)OC(C)(C)C)C(=O)NC1CCCC1 | > 35 µM (inactive) |
| CC(C)CC(=O)c1c[nH]c(C(=O)NCc2ccccc2)c1 | > 35 µM (inactive) |
| Cc1cccc(/C=N/NC(=O)c2cc3c(s2)-c2ccccc2CC3)c1 | > 35 µM (inactive) |
| Cc1c(C)c(C)c(C(=O)CCc2cccc(NC(=O)CCC(=O)O)c2)c(C)c1C | > 35 µM (inactive) |
| CN(CC(=O)Nc1cccc2ccccc12)C(=O)c1ccc(NC(=O)CC#N)cc1 | > 35 µM (inactive) |
| O=C(COc1ccc(/C=N/NC(=O)c2cc3ccccc3o2)cc1Cl)Nc1ccccc1 | 6.55 µM |
| NC(=O)c1ccc(NC(=O)CSc2nnc(C3CC3)n2C2CC2)cc1 | > 35 µM (inactive) |
| CCOC(=O)N1CCN(C(=O)c2ccc3nc(N4CCC(C)CC4)sc3c2)CC1 | > 35 µM (inactive) |
| NS(=O)(=O)c1ccc(CCNC(=O)c2ccc3c(c2)OCCO3)cc1 | > 35 µM (inactive) |
| CCN(CC)C(=S)SCC(=O)Nc1ccc(F)cc1 | > 35 µM (inactive) |
| O=C(COC(=O)c1ccc(CN2CCCC2=O)cc1)Nc1ccc(F)cc1 | > 35 µM (inactive) |
| CC(Oc1ccccc1)C(=O)N1CCN=C1SCc1ccccc1 (centres undefined) | > 35 µM (inactive) |
| Cc1cccc(NC(=O)CSc2nc(C)c(CC(=O)c3ccc(Br)cc3)c(C)c2C#N)c1C | > 35 µM (inactive) |
| COc1ccccc1C(=O)Nc1ccnn1C1CCN(Cc2cn(C)c3ccccc23)CC1 | > 35 µM (inactive) |
| Cc1cc(C)n(S(=O)(=O)c2ccc(C)c(C)c2C)n1 | > 35 µM (inactive) |
| CC(=O)Nc1ccc(C(=O)CN2C(=O)NC3(CCCc4ccccc43)C2=O)c(F)c1 (centres undefined) | > 35 µM (inactive) |
| CCn1c(Cl)c(C=O)s/c1=N\S(=O)(=O)c1ccccc1 | > 35 µM (inactive) |

| SMILES | EC50 |
| --- | --- |
| COc1ccc(CNCc2ccc([N+](=O)[O-])cc2)cc1OC | > 35 µM (inactive) |
| COc1ccc(NC(=O)CN(C)C(=O)/C=C/c2ccc(S(=O)(=O)N3CCCCCC3)cc2)cc1 | > 35 µM (inactive) |
| Cc1cccc(N(C)C(=O)CCS(=O)(=O)c2cccc3nonc23)c1 | > 35 µM (inactive) |
| O=C(Cc1cccc([N+](=O)[O-])c1)Nc1cccc(C(=O)N2CCOCC2)c1 | > 35 µM (inactive) |
| N#CC(C#N)=C1C=CC=CN1/C(=C\c1ccccc1Cl)C(=O)c1ccccc1 | 7.34 µM |
| CCOC(=O)/C(=C\c1ccc([N+](=O)[O-])cc1)C(=O)c1cc(C(C)=O)c(Nc2ccccc2)s1 | 1.9 µM |
| CCOc1ccccc1OCCC(=O)N1CCN(S(=O)(=O)c2ccccc2[N+](=O)[O-])CC1 | > 35 µM (inactive) |
| Cc1ccc(C)c(NC(=O)COC(=O)c2cc3ccccc3oc2=O)c1 | > 35 µM (inactive) |
| O=C(CCCCCn1c(=O)[nH]c2ccsc2c1=O)N1CCN(C2CCCCC2)CC1 | > 35 µM (inactive) |
| CC1=NNC(=O)/C1=C\c1cn(-c2ccccc2)nc1-c1cccs1 | 15.1 µM |
| COC(=O)C1=C(c2ccc(F)cc2F)C[C@@H]2CC[C@H]1N2C(=O)N1CCC(O)CC1 | > 35 µM (inactive) |
| CC1(C)CC(=O)c2cc3c(N)c(C(=O)NCc4ccccc4)sc3nc2C1 | > 35 µM (inactive) |
| COCC(=O)NC(C)c1nc2ccccc2[nH]1 (centres undefined) | > 35 µM (inactive) |
| C=CCn1c(SCC(=O)NC2CC2)nnc1-c1ccccn1 | > 35 µM (inactive) |
| O=C(NCc1ccccc1Br)c1cccc2c1C(=O)c1ccc(-c3ccc(OC(F)(F)F)cc3)cc1S2(=O)=O | > 35 µM (inactive) |
| CSc1ccc(C(c2c(C)[nH][nH]c2=O)c2c(C)[nH][nH]c2=O)cc1 | > 35 µM (inactive) |
| Cn1c(SCc2ccccc2)nc(N)c(N=O)c1=O | > 35 µM (inactive) |
| O=C(CN1C(=O)c2ccccc2S1(=O)=O)N1CCN(Cc2ccc3c(c2)OCO3)CC1 | > 35 µM (inactive) |
| CCCOc1ccc(N2C(=O)C3ON(c4ccccc4)C(CCC)C3C2=O)cc1 (centres undefined) | > 35 µM (inactive) |
| O=C(O)Cc1ccc(NC(=O)C(c2ccccc2)c2ccccc2)cc1 | > 35 µM (inactive) |
| CN(C)S(=O)(=O)c1cccc(C(=O)Nc2n[nH]c(C(F)(F)F)n2)c1 | > 35 µM (inactive) |
| CCOC(=O)c1[nH]c2ccccc2c1NC(=S)Nc1cc(C)ccc1C | > 35 µM (inactive) |
| COc1ccc(S(=O)(=O)NC2CCCC2)cc1C(N)=O | > 35 µM (inactive) |
| CCOC(=O)C(NC(=O)c1ccc(OC)cc1)(N1CCCC1=O)C(F)(F)F (centres undefined) | > 35 µM (inactive) |

| SMILES | EC50 |
| --- | --- |
| CCOc1cc(/C=N/N=C(\N)c2nonc2N)cc(Br)c1OCc1cccc2ccccc12 | 28 µM |
| COc1ccc(C(O)Cc2nccn2C)cc1 (centres undefined) | > 35 µM (inactive) |
| COc1ccc2cc(C)c3nnc(SCC(=O)Nc4nc(-c5ccc(F)cc5)cs4)n3c2c1 | 9.65 µM |
| COc1cc2c(cc1OC)C(C)N(C(=O)c1cc3c(s1)-c1ccccc1OC3)CC2 (centres undefined) | > 35 µM (inactive) |
| COc1ccc(-c2oc(=O)c3cc(OC)c(OC)cc3c2/C=C/c2cccc([N+](=O)[O-])c2)cc1 | > 35 µM (inactive) |
| CCOc1ccccc1CNC(=O)Cn1nc(C)c2c(C)n(-c3ccc(C)cc3)nc2c1=O | > 35 µM (inactive) |
| CC(=O)[C@]1(O)Cc2c(O)c3c(c(O)c2[C@@H](O[C@H]2C[C@H](N)[C@H](O)[C@H](C)O2)C1)C(=O)c1ccccc1C3=O | > 35 µM (inactive) |
| CCOc1cccc(C2C(C(=O)c3ccc(C)o3)=C(O)C(=O)N2Cc2ccncc2)c1 (centres undefined) | > 35 µM (inactive) |
| O=C(/C=C/c1ccc(O)cc1)c1ccc(O)cc1O | > 35 µM (inactive) |
| CCOCCCNC(=O)c1ccc(N2CC3CC(C2)c2cccc(=O)n2C3)c(NC(=O)Nc2cccc(OC)c2)c1 (centres undefined) | > 35 µM (inactive) |
| O=C(Cc1ccccc1)Oc1cccc(N2C(=O)CCC2=O)c1 | > 35 µM (inactive) |
| CCc1ccc(Nc2n[n+](-c3ccccc3)c(/C=C/c3ccccc3)s2)cc1 | 10.9 µM |
| O=C(Nc1ccc(N2CCN(C(=O)c3ccco3)CC2)cc1)c1cccs1 | > 35 µM (inactive) |
| CCC(NC(=O)c1cccc(Cn2cc([N+](=O)[O-])cn2)c1)c1ccc(C(C)C)cc1 (centres undefined) | > 35 µM (inactive) |
| Cc1c(C(=O)O)sc2nc(-c3cccs3)cc(C(F)(F)F)c12 | > 35 µM (inactive) |
| COC(=O)c1ccc(NC(=O)CCN2CCN(c3ccccc3)CC2)cc1 | > 35 µM (inactive) |
| CCOc1ccc(NC(=O)CSc2nnc(Cc3cccn3C)n2-c2ccc(F)cc2)cc1 | > 35 µM (inactive) |
| Cc1ccc(C)c(N(C)C(=O)c2ccc3c(=O)n4c(nc3c2)CCCCC4)c1 | > 35 µM (inactive) |
| COc1ccc(OC)c(CNc2ccc([N+](=O)[O-])cc2C)c1 | > 35 µM (inactive) |
| Cc1cccc2c3c([nH]c12)CCN(C)C3 | > 35 µM (inactive) |
| COc1ccc(NS(=O)(=O)c2cc(NC(=O)c3ccc(Cl)cc3)ccc2N2CCOCC2)cc1 | > 35 µM (inactive) |
| OCc1ccc(OCCCOc2cccc3cccnc23)cc1 | > 35 µM (inactive) |
| Cc1ccc(NC(=O)c2cc(N3C(=O)C=CC3=O)ccc2N2CCOCC2)cc1Cl | > 35 µM (inactive) |
| CC(=O)N1CCN(C(=S)c2ccc([N+](=O)[O-])cc2)CC1 | > 35 µM (inactive) |

| SMILES | EC50 |
| --- | --- |
| CCOC(=O)C1=C(c2ccccc2)O/C(=C(/C#N)C(F)(F)F)S1 | > 35 µM (inactive) |
| Cc1occc1-c1nnc(-c2cc([N+](=O)[O-])cc([N+](=O)[O-])c2)o1 | > 35 µM (inactive) |
| COc1ccc(NC(=O)c2ccco2)c(NC(=O)c2ccc([N+](=O)[O-])cc2)c1 | > 35 µM (inactive) |
| CCS(=O)(=O)Nc1ccc(Cc2ccncc2)cc1 | > 35 µM (inactive) |
| CC(C)CC(NC(N)=O)C(=O)OCC(=O)Nc1ccc(SC(F)F)cc1 (centres undefined) | > 35 µM (inactive) |
| O=C(O)COc1ccccc1/C=C1\C(=O)Nc2ccc(Br)cc21 | > 35 µM (inactive) |
| Cc1[nH]nc2nc(SCC(=O)NCCC3=CCCCC3)n(-c3ccc(Br)cc3)c(=N)c12 | 13.9 µM |
| CCN(CC)CCN(C(=O)c1cc2c(ccc3ccccc32)oc1=O)c1nc2cc3c(cc2s1)OCCO3 | 8.31 µM |
| CCCN1C(=O)C(=O)c2cc(C)ccc21 | > 35 µM (inactive) |
| CC1=NNC(=O)/C1=C\c1cn(-c2ccccc2)nc1-c1ccccc1 | 11.8 µM |
| CCOC(=O)CN(Cc1ccccc1)C(=O)OC(C)(C)C | > 35 µM (inactive) |
| N#CN=C1SCCS1 | > 35 µM (inactive) |
| COCCN(C(=O)CSc1nc2ccccc2c(=O)n1C(C)COC)c1c(N)n(Cc2ccccc2)c(=O)[nH]c1=O (centres undefined) | > 35 µM (inactive) |
| Cc1cc(NC(=O)COC(=O)C2=NN(c3ccccc3)C(=O)CC2)c([N+](=O)[O-])cc1C | > 35 µM (inactive) |
| Cc1ccc(-n2nc3c(=O)n(C(C)C(=O)NCc4ccccc4Cl)nc(C)c3c2C)cc1 (centres undefined) | > 35 µM (inactive) |
| CN(CC(=O)O)S(=O)(=O)c1ccc2oc3ccccc3c2c1 | > 35 µM (inactive) |
| C=CCOc1c2ccc(C(=O)N(CC)c3ccc(OC)cc3)cc2nn1C | > 35 µM (inactive) |
| O=C(COC(=O)Cc1ccccc1[N+](=O)[O-])NCc1ccc(Cl)cc1 | > 35 µM (inactive) |
| CC(=O)OCCCNc1cc(Sc2nc3ccccc3s2)c2nonc2c1[N+](=O)[O-] | > 35 µM (inactive) |
| O=C(Cn1c(C(F)(F)F)nc2ccccc21)N=Nc1c(O)[nH]c2ccc(Br)cc12 | 27.4 µM |
| CCc1ccc(N(CC)C(=O)c2cn(C)c(=O)c3ccccc23)cc1 | > 35 µM (inactive) |
| CCCS(=O)(=O)C/C(N)=N/OC(=O)c1ccc(Cl)cc1 | > 35 µM (inactive) |
